Source: paper PMC5581453, “Combination therapy of PKCζ and COX-2 inhibitors synergistically suppress melanoma metastasis” (Journal of Experimental & Clinical Cancer Research : CR, 2017)

Biological target: T1, PKCζ (protein kinase C ζ) (Homo sapiens, UniProt Q05513)
T1 construct: gene PRKCZ
T1 sequence (Q05513 1-592): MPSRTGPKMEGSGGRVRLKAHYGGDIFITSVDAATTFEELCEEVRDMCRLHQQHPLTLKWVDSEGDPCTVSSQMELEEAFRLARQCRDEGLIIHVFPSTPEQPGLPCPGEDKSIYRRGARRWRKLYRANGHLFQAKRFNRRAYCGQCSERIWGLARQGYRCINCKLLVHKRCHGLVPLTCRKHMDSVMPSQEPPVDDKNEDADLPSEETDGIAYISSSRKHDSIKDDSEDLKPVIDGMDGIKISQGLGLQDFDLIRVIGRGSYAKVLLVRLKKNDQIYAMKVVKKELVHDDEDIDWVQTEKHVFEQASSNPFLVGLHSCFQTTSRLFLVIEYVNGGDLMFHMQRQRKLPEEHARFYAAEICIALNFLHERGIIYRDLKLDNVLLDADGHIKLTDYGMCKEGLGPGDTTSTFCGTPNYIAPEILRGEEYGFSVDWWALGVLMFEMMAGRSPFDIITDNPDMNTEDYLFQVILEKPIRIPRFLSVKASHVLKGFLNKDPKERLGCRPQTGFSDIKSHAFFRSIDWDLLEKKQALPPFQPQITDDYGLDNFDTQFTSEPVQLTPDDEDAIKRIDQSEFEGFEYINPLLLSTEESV
Assay: Z'-LYTE kinase assay (Ser/Thr […] peptide) with purchased PKCζ (Invitrogen Cat. No. […]), […] ATP
Type: biochemical

IC50: ~10 µM
SMILES: Cc1c(CSC(=N)N)c(C)c(CSC(=N)N)c(C)c1CSC(=N)N [J-4]
